Measured values from patent publication US7390660B2, “Methods for growing mammalian cells in vitro” (Hoffman-La Roche Inc., priority 2002, dated 2008).
Where “and” joins values, the source holds several entries; their conditions need not be identical. Equal values may be shown once.

Key:
[1] = test system: myeloma cell line (Sp2/0); assay: Fermentation in dialysis mode, 1000 L production bioreactor, with addition of citrate; type: cell-based
Description: The cells of a myeloma cell line (Sp2/0) were thawed and expanded up to 2 L in spinner flasks over a period of approximately 14 days for the inoculation of a 10 L bioreactor. After 2 to 4 days the cells were split or transferred to a 100 L bioreactor and further cultivated for 2 to 4 days. The 100 L bioreactor served as inoculum for the 1000 L production bioreactor. For each inoculum step a starting cell density of about 0.2 to about 0.4×10^6 viable cells per mL was used.
The production bioreactor ran in a dialysis mode. The bioreactor was a stirred tank reactor with a working volume of about 900 to about 1300 L. Aeration was performed by sparging. The following process parameters were controlled: pH, temperature, pO^2, pressure and agitation rate. The bioreactor was equipped for dialysis mode with hollow fibre cartridges. The cartridges were connected to an external loop with a dialysis medium reservoir. The dialysis of the culture was started 2 to 4 days after inoculation. During fermentation the reservoir was repeatedly filled up with fresh dialysis medium. Some medium components were fed as separate sterile solutions to the bioreactor. These comprise glucose, amino acids, vitamins, and trace elements.
Fermentation was terminated after a maximum of 16 days.
The citrate was added to the fermentation medium and to the dialysis medium.

[2] = test system: myeloma cell line (Sp2/0); assay: Fermentation in fed batch mode, 10 L bioreactor, with addition of citrate; type: cell-based; details: 2.4 mmol/L citrate, 10 L scale, single runs and mean
Procedure: The cells of a myeloma cell line were thawed (Sp2/0) and expanded up to 2 L in spinner flasks for the inoculation of a 10 L bioreactor. The production bioreactor ran in a fed batch mode. The bioreactor was a stirred tank reactor with a working volume of from about 9 to about 13 L. Aeration was performed by sparging. The following process parameters were controlled: pH, temperature, pO2, pressure and agitation rate. Feeding of the culture was started 2 to 4 days after inoculation. Components including glucose, amino acids, vitamins, and trace elements were fed as separate sterile solutions to the bioreactor. Fermentation was terminated after maximum of 10 days.

O=C(O)CC(O)(CC(=O)O)C(=O)O [Citrate]
Amount of alkali required to adjust a constant pH value reduced to, % of the control [1]: about 34% | Reduction of the specific consumption rate for glucose ([1]; 1000 L scale, versus runs without citrate, printed 'reduced ... about 44%'): about 44% | Specific consumption rate of glucose [2]: 443 μg/10^6 cells x day and 715 μg/10^6 cells x day and 451 μg/10^6 cells x day | Specific production rate of lactate [2]: 230 μg/10^6 cells x day and 392 μg/10^6 cells x day and 304 μg/10^6 cells x day | Specific consumption rate of glucose ([2]; mean): 536 μg/10^6 cells x day
